In article PMC10223470 (Molecules, 2023):

Experiments:
mice [1] = assay: Motor coordination, chimney test; type: in vivo; conditions: 25, 50 and 75 mg/kg i.p., 60 min before testing
Procedure: The experiments were carried out on 6 weeks old naive Swiss male mice (Experimental Medicine Center (OMD), Lublin, Poland), weighing 28–30 g. The cages with mice were located in air-conditioned rooms maintaining the ambient temperature within the range of 23–25 °C. The animals were provided with a natural 12 h day/night cycle, replicating the day and night mode. Each testing group was represented by 8–10 animals, depending on the research schedule. All experiments were conducted according to the National Institute of Health Guidelines for the Care and Use of Laboratory Animals (8th edition) and to the European Community Council Directive for the Care and Use of Laboratory Animals of 22 September 2010 (2010/63/EU) and were approved by the Local Ethical Committee (number of ethical approval: 147/2018). Compound 17 (25, 50, 75 mg/kg) was suspended in 1% Tween 80 in saline solution and was administered intraperitoneally (i.p.) 60 min before the test. […] Imipramine hydrochloride (30 mg/kg, Sigma-Aldrich was administered intraperitoneally (i.p.) 60 min before the test. […] Sigma-Aldrich, USA) was given subcutaneously (s.c.). Prior to administration, the agent was dissolved in saline and injected 30 min before the test. […] Motor coordination has been assessed in mice using the chimney test and the rotarod test, according to the procedure we had used before. […]

mice [2] = assay: Elevated plus-maze (EPM) test; type: in vivo; conditions: 25, 50 and 75 mg/kg i.p., 60 min before the test
Procedure: The experiments were carried out on 6 weeks old naive Swiss male mice (Experimental Medicine Center (OMD), Lublin, Poland), weighing 28–30 g. The cages with mice were located in air-conditioned rooms maintaining the ambient temperature within the range of 23–25 °C. The animals were provided with a natural 12 h day/night cycle, replicating the day and night mode. Each testing group was represented by 8–10 animals, depending on the research schedule. All experiments were conducted according to the National Institute of Health Guidelines for the Care and Use of Laboratory Animals (8th edition) and to the European Community Council Directive for the Care and Use of Laboratory Animals of 22 September 2010 (2010/63/EU) and were approved by the Local Ethical Committee (number of ethical approval: 147/2018).
Compound 17 (25, 50, 75 mg/kg) was suspended in 1% Tween 80 in saline solution and was administered intraperitoneally (i.p.) 60 min before the test. Diazepam (DZ, Relanium, Polfa, Poland) at a dose of 1 mg/kg was diluted in 0.9% saline containing 1% Tween 80 and was administered subcutaneously (s.c.), 60 min before the test. Imipramine hydrochloride (30 mg/kg, Sigma-Aldrich was administered intraperitoneally (i.p.) 60 min before the test. D-amphetamine sulfate (3 mg/kg; Sigma-Aldrich, USA) was given subcutaneously (s.c.). Prior to administration, the agent was dissolved in saline and injected 30 min before the test. Control animals received an (i.p.) or (s.c.) injection of a respective vehicle. All compounds were injected in a manner generally accepted in experimental pharmacology, in an amount of 10 mL/kg body weight.
The experiment was carried out on mice according to the method of Lister. […] The number of entries into the open arms and the time spent in these arms were scored for a 5-min test period. […] The following measures were obtained from the test: the total number of arm entries, the percentage of entries into the open arms, the time spent in the open arms expressed as a percentage of the time spent in both the open and closed arms. […]

O=C(CCN1C(=O)CSc2ccccc21)Nc1ccc(Cl)cc1 [Compound 17, N-(4-Chlorophenyl)-3-(3-oxo-2,3-dihydro-4H-benzo[b][1,4]thiazin-4-yl)propanamide]
effect on behavior in the chimney test (mice [1]): did not change the behavior
time to leave the chimney (mice [1]): ≤ 30 s
percentage of entries into open arms (mice [2]): did not change
percentage of the time spent in open arms (mice [2]): did not change
